Measurements taken from PubChem BioAssay AID248 (DTP/NCI, 2004).
Where “and” joins values, the source holds several entries; their conditions need not be identical. Identical values can stand only once. Inconclusive results and toxic doses are left out.

System: L1210 leukemia ip in BDF1 mice, survival T/C
Assay: NCI In Vivo Anticancer Drug Screen. Data for tumor model L1210 Leukemia (intraperitoneal) in B6D2F1 (BDF1) mice
Settings: endpoint: mean survival time, higher = longer survival
How it was run: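 Mice bearing the transplanted tumor received compound or vehicle. Survival of the treated group was divided by that of the vehicle-treated control group to give the ratio.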

[1] = dose: 100.0 mg/kg/injection, schedule: Q01DX009 (ip), vehicle: saline
[2] = dose: 100.0 mg/kg/injection, schedule: Q04DX003 (ip), vehicle: saline
[3] = dose: 200.0 mg/kg/injection, schedule: Q01DX009 (ip), vehicle: saline
[4] = dose: 200.0 mg/kg/injection, schedule: Q04DX003 (ip), vehicle: saline
[5] = dose: 400.0 mg/kg/injection, schedule: Q04DX003 (ip), vehicle: saline
[6] = dose: 6.25 mg/kg/injection, schedule: Q01DX009 (ip), vehicle: saline
[7] = dose: 25.0 mg/kg/injection, schedule: Q01DX009 (ip), vehicle: saline
[8] = dose: 50.0 mg/kg/injection, schedule: Q01DX009 (ip), vehicle: saline
[9] = dose: 100.0 mg/kg/injection, schedule: Q04DX003 (ip), vehicle: saline with Tween-80
[10] = dose: 200.0 mg/kg/injection, schedule: Q04DX003 (ip), vehicle: saline with Tween-80
[11] = dose: 50.0 mg/kg/injection, schedule: Q01DX009 (ip), vehicle: saline with Tween-80
[12] = dose: 100.0 mg/kg/injection, schedule: Q01DX009 (ip), vehicle: saline with Tween-80
[13] = dose: 200.0 mg/kg/injection, schedule: Q01DX009 (ip), vehicle: saline with Tween-80
[14] = dose: 100.0 mg/kg/injection, schedule: Q04DX003 (ip), vehicle: Klucel (hydroxypropylcellulose) (HPC)
[15] = dose: 200.0 mg/kg/injection, schedule: Q04DX003 (ip), vehicle: Klucel (hydroxypropylcellulose) (HPC)
[16] = dose: 400.0 mg/kg/injection, schedule: Q04DX003 (ip), vehicle: Klucel (hydroxypropylcellulose) (HPC)
[17] = dose: 200.0 mg/kg/injection, schedule: Q01DX009 (ip), vehicle: Klucel (hydroxypropylcellulose) (HPC)

CN(C)C(=O)NCC[N+](C)(C)C
T/C [1]: 100 % of control
T/C [2]: 99 % of control
T/C [3]: 106 % of control
T/C [4]: 92 % of control
T/C (dose: 400.0 mg/kg/injection, schedule: Q01DX009 (ip), vehicle: saline): 97 % of control
T/C [5]: 94 % of control

COc1ccc2c(c1)N(CCC1CCCCN1C)c1ccccc1S2 (configuration not stated)
T/C (dose: 3.12 mg/kg/injection, schedule: Q01DX009 (ip), vehicle: saline): 108 % of control and 121 % of control
T/C [6]: 105 % of control and 118 % of control
T/C (dose: 6.25 mg/kg/injection, schedule: Q04DX003 (ip), vehicle: saline): 107 % of control
T/C (dose: 12.5 mg/kg/injection, schedule: Q01DX009 (ip), vehicle: saline): 111 % of control
T/C (dose: 12.5 mg/kg/injection, schedule: Q04DX003 (ip), vehicle: saline): 106 % of control
T/C [7]: 117 % of control
T/C (dose: 25.0 mg/kg/injection, schedule: Q04DX003 (ip), vehicle: saline): 117 % of control and 122 % of control
T/C (dose: 50.0 mg/kg/injection, schedule: Q04DX003 (ip), vehicle: saline): 114 % of control and 117 % of control

COc1ncnc2c1c(C#N)cn2C1OC(CO)C(O)C1O (configuration not stated)
T/C [6]: 124 % of control
T/C [8]: 119 % of control
T/C [1]: 169 % of control
T/C (dose: 200.0 mg/kg/injection, schedule: Q01DX005 (ip), vehicle: saline): 93 % of control

CC(C)N(CCN)C(C)C
T/C [8]: 94 % of control
T/C [1]: 103 % of control
T/C [2]: 95 % of control
T/C [3]: 103 % of control
T/C [4]: 97 % of control

N#CCC1=CC(=O)C(=O)c2ccccc21
T/C (dose: 100.0 mg/kg/injection, schedule: Q01DX001 (ip), vehicle: saline): 102 % of control
T/C (dose: 200.0 mg/kg/injection, schedule: Q01DX001 (ip), vehicle: saline): 102 % of control
T/C (dose: 400.0 mg/kg/injection, schedule: Q01DX001 (ip), vehicle: saline): 100 % of control

O=C(Nc1ccccc1)N1CCN=C1C1CCCc2ccccc21 (configuration not stated)
T/C (dose: 100.0 mg/kg/injection, schedule: Q04DX002 (ip), vehicle: saline with Tween-80): 89 % of control
T/C (dose: 200.0 mg/kg/injection, schedule: Q04DX002 (ip), vehicle: saline with Tween-80): 89 % of control
T/C (dose: 400.0 mg/kg/injection, schedule: Q04DX002 (ip), vehicle: saline with Tween-80): 86 % of control

COC(=O)C1=C(C)NC(=O)NC1c1ccccc1 (configuration not stated)
T/C [9]: 105 % of control
T/C [10]: 97 % of control
T/C (dose: 400.0 mg/kg/injection, schedule: Q04DX003 (ip), vehicle: saline with Tween-80): 100 % of control

O=C(Cc1ccccc1)Nc1cccc(O)c1
T/C (dose: 100.0 mg/kg/injection, schedule: Q01DX001 (ip), vehicle: saline with Tween-80): 97 % of control
T/C (dose: 200.0 mg/kg/injection, schedule: Q01DX001 (ip), vehicle: saline with Tween-80): 96 % of control
T/C (dose: 400.0 mg/kg/injection, schedule: Q01DX001 (ip), vehicle: saline with Tween-80): 95 % of control

CCOP(=S)(OCC)SC(C)c1ccccc1 (configuration not stated)
T/C [11]: 95 % of control
T/C [12]: 91 % of control
T/C [13]: 100 % of control

OCC1=CCC2c3[nH]c4ccccc4c3CCN2C1 (configuration not stated)
T/C [9]: 106 % of control
T/C [10]: 90 % of control

CC(C)(C)C(O)C1CCC(C(O)C(C)(C)C)S1(=O)=O (configuration not stated)
T/C (dose: 50.0 mg/kg/injection, schedule: Q04DX003 (ip), vehicle: Klucel (hydroxypropylcellulose) (HPC)): 100 % of control
T/C [14]: 104 % of control
T/C [15]: 98 % of control
T/C [16]: 100 % of control

CC1=C2CC(C(C)(C)O)CCC2(C)CC/C1=N\N1CCCCC1 (configuration not stated)
T/C (dose: 100.0 mg/kg/injection, schedule: Q04DX003 (sc), vehicle: olive oil, sesame oil, peanut oil): 100 % of control
T/C (dose: 200.0 mg/kg/injection, schedule: Q04DX003 (sc), vehicle: olive oil, sesame oil, peanut oil): 107 % of control
T/C (dose: 400.0 mg/kg/injection, schedule: Q04DX003 (sc), vehicle: olive oil, sesame oil, peanut oil): 105 % of control

O=C(N1CCCCC1)N1CCCCC1
T/C (dose: 100.0 mg/kg/injection, schedule: Q04DX002 (ip), vehicle: other): 105 % of control
T/C (dose: 200.0 mg/kg/injection, schedule: Q04DX002 (ip), vehicle: other): 91 % of control
T/C (dose: 400.0 mg/kg/injection, schedule: Q04DX002 (ip), vehicle: other): 88 % of control

S=C1NC(c2ccccc2)NC(c2ccccc2)S1 (configuration not stated)
T/C (dose: 12.0 mg/kg/injection, schedule: Q01DX009 (ip), vehicle: saline): 93 % of control
T/C [7]: 90 % of control
T/C [8]: 90 % of control

[Cl][Hg][c]1ccc2ccccc2c1
T/C (dose: 6.25 mg/kg/injection, schedule: Q01DX005 (ip), vehicle: saline with Tween-80): 104 % of control
T/C (dose: 12.5 mg/kg/injection, schedule: Q01DX005 (ip), vehicle: saline with Tween-80): 97 % of control
T/C (dose: 12.5 mg/kg/injection, schedule: Q01DX009 (ip), vehicle: saline with Tween-80): 92 % of control
T/C (dose: 25.0 mg/kg/injection, schedule: Q01DX005 (ip), vehicle: saline with Tween-80): 104 % of control

Cc1cccc(OC(=O)Nc2cccc(Cl)c2)c1
T/C (dose: 100.0 mg/kg/injection, schedule: Q01DX009 (ip), vehicle: carboxymethylcellulose (CMC)): 98 % of control and 110 % of control
T/C (dose: 100.0 mg/kg/injection, schedule: Q04DX002 (ip), vehicle: Klucel (hydroxypropylcellulose) (HPC)): 95 % of control
T/C (dose: 100.0 mg/kg/injection, schedule: Q04DX002 (ip), vehicle: carboxymethylcellulose (CMC)): 93 % of control and 120 % of control and 92 % of control
T/C (dose: 100.0 mg/kg/injection, schedule: Q04DX003 (ip), vehicle: carboxymethylcellulose (CMC)): 103 % of control
T/C (dose: 200.0 mg/kg/injection, schedule: Q01DX009 (ip), vehicle: carboxymethylcellulose (CMC)): 96 % of control and 104 % of control
T/C (dose: 200.0 mg/kg/injection, schedule: Q04DX002 (ip), vehicle: Klucel (hydroxypropylcellulose) (HPC)): 92 % of control
T/C (dose: 200.0 mg/kg/injection, schedule: Q04DX002 (ip), vehicle: carboxymethylcellulose (CMC)): 97 % of control and 103 % of control and 106 % of control
T/C (dose: 200.0 mg/kg/injection, schedule: Q04DX003 (ip), vehicle: carboxymethylcellulose (CMC)): 110 % of control
T/C (dose: 400.0 mg/kg/injection, schedule: Q04DX002 (ip), vehicle: Klucel (hydroxypropylcellulose) (HPC)): 95 % of control
T/C (dose: 400.0 mg/kg/injection, schedule: Q04DX002 (ip), vehicle: carboxymethylcellulose (CMC)): 98 % of control and 100 % of control and 124 % of control
T/C (dose: 400.0 mg/kg/injection, schedule: Q04DX003 (ip), vehicle: carboxymethylcellulose (CMC)): 94 % of control

N#Cc1cc2c3ccccc3ncc2c2ccccc12
T/C [14]: 91 % of control
T/C [17]: 96 % of control
T/C [15]: 89 % of control
T/C [16]: 89 % of control

CCCCCN(C)N=Nc1ccccc1C(N)=O
T/C (dose: 100.0 mg/kg/injection, schedule: Q01DX001 (ip), vehicle: other): 106 % of control
T/C (dose: 100.0 mg/kg/injection, schedule: Q01DX009 (ip), vehicle: Klucel (hydroxypropylcellulose) (HPC)): 114 % of control
T/C [14]: 109 % of control
T/C (dose: 200.0 mg/kg/injection, schedule: Q01DX001 (ip), vehicle: other): 112 % of control
T/C [17]: 115 % of control
T/C [15]: 101 % of control
T/C (dose: 400.0 mg/kg/injection, schedule: Q01DX001 (ip), vehicle: other): 115 % of control
T/C [16]: 112 % of control

CCCCCCCCCCCCCCCCc1ccc(CCCC(=O)O)cc1
T/C [14]: 91 % of control
T/C [15]: 92 % of control
T/C [16]: 91 % of control

OC1/C(=C/c2ccccc2)c2cccc3cccc1c23 (configuration not stated)
T/C [11]: 90 % of control
T/C [12]: 93 % of control
T/C [13]: 93 % of control

O=C(OCc1ccccc1)c1ccc(OCc2ccccc2)cc1
T/C [2]: 94 % of control
T/C [4]: 100 % of control
T/C [5]: 96 % of control

CC(CN1CCOCC1)O[Si](C)(C)C (configuration not stated)
T/C [8]: 92 % of control
T/C [1]: 96 % of control
T/C [3]: 96 % of control
